According to ChEMBL document CHEMBL3871282, “Neo-tanshinlactone D-ring modified novel analogues induce apoptosis in human breast cancer cell via DNA damage” (Bioorg Med Chem, 2017):

How the values were obtained:
[1] = Cytotoxicity against human SKBR3 ER negative, PR negative,HER2 positive cells assessed as cell growth inhibition after 24 hrs by MTT assay; assay type: functional, cell-based; conditions: SK-BR-3, 24 h
[2] = Cytotoxicity against human HaCaT cells assessed as cell growth inhibition after 24 hrs by MTT assay; assay type: toxicity, cell-based
[3] = Cytotoxicity against human HCT116 cells assessed as cell growth inhibition after 24 hrs by MTT assay; assay type: functional, cell-based; conditions: HCT-116, 24 h
[4] = Cytotoxicity against human MCF7 ER positive, PR positive/negative,HER2 negative cells assessed as cell growth inhibition after 24 hrs by MTT assay; assay type: functional, cell-based; conditions: MCF7, 24 h
[5] = Cytotoxicity against human HepG2 cells assessed as cell growth inhibition after 24 hrs by MTT assay; assay type: functional, cell-based; conditions: HepG2, 24 h
[6] = Cytotoxicity against human HeLa cells assessed as cell growth inhibition after 24 hrs by MTT assay; assay type: functional, cell-based
[7] = Cytotoxicity against human WI38 cells assessed as cell growth inhibition after 24 hrs by MTT assay; assay type: toxicity, cell-based, WI-38
[8] = Cytotoxicity against human MDA-MB-231 ER negative, PR negative,HER2 negative cells assessed as cell growth inhibition after 24 hrs by MTT assay; assay type: functional, cell-based; conditions: MDA-MB-231, 24 h
[9] = Cytotoxicity against human breast cancer cells assessed as cell growth inhibition after 3 days by SRB assay; assay type: functional, Cancer cell lines

| SMILES | IC50 [1] | IC50 at 24 h [2] | IC50 [3] | IC50 [4] | IC50 [5] | IC50 [6] | IC50 at 24 h [7] | IC50 [8] | GI [9] |
| --- | --- | --- | --- | --- | --- | --- | --- | --- | --- |
| COc1ccc(COc2cc(=O)[nH]c3c2ccc2ccccc23)cc1 | 0.166 µM | > 100 µM | 0.0752 µM | 0.0487 µM | 42.2 µM | 42.7 µM | > 100 µM | 0.178 µM | – |
| O=C(Oc1cc(=O)[nH]c2c1ccc1ccccc12)c1ccc(F)cc1F | 67.1 µM | – | 92.8 µM | 63.4 µM | 67.5 µM | 68.9 µM | – | 70.2 µM | – |
| O=c1cc(OS(=O)(=O)c2ccc(F)cc2)c2ccc3ccccc3c2[nH]1 | 144 µM | – | 168 µM | 132 µM | > 200 µM | > 200 µM | – | 157 µM | – |
| O=c1cc(OS(=O)(=O)c2ccc(C(F)(F)F)cc2)c2ccc3ccccc3c2[nH]1 | 131 µM | – | 150 µM | 120 µM | > 200 µM | > 200 µM | – | 139 µM | – |
| CC(C)CC(=O)Oc1cc(=O)[nH]c2c1ccc1ccccc12 | 39.8 µM | – | 27.6 µM | 11.9 µM | 73.1 µM | 45.4 µM | – | 57.4 µM | – |
| O=C(Oc1cc(=O)[nH]c2c1ccc1ccccc12)c1ccccc1 | 42.6 µM | – | 64 µM | 30.6 µM | 83.1 µM | 81 µM | – | 49.3 µM | – |
| O=c1cc(OCc2ccc([N+](=O)[O-])cc2)c2ccc3ccccc3c2[nH]1 | 0.153 µM | > 100 µM | 0.0881 µM | 0.0665 µM | 41.3 µM | 39.7 µM | > 100 µM | 0.181 µM | – |
| O=c1cc(OCc2nc3ccccc3[nH]2)c2ccc3ccccc3c2[nH]1 | 0.103 µM | > 100 µM | 0.0672 µM | 0.0383 µM | 44.2 µM | 34.9 µM | > 100 µM | 0.117 µM | – |
| CCC(=O)Oc1cc(=O)[nH]c2c1ccc1ccccc12 | 30.6 µM | – | 52 µM | 20.9 µM | 55.1 µM | 59.2 µM | – | 34.5 µM | – |
| Cc1cccc2c1ccc1c3occ(C)c3c(=O)oc21 | – | – | – | – | – | – | – | – | 9.65 µM |
| O=C(Oc1cc(=O)[nH]c2c1ccc1ccccc12)c1ccc([N+](=O)[O-])cc1 | 56.4 µM | – | 84.1 µM | 45.9 µM | 103 µM | 85.3 µM | – | 69.4 µM | – |
| CCCC(=O)Oc1cc(=O)[nH]c2c1ccc1ccccc12 | 31.1 µM | – | 23.3 µM | 11.3 µM | 35.2 µM | 62 µM | – | 38.2 µM | – |
| O=C(/C=C/c1ccc([N+](=O)[O-])cc1)Oc1cc(=O)[nH]c2c1ccc1ccccc12 | 38.4 µM | – | 76.1 µM | 37.9 µM | 99.1 µM | 90 µM | – | 43.9 µM | – |
